Laboratory results published in ChEMBL document CHEMBL1146061, “Novel, potent P2-P3 pyrrolidine derivatives of ketoamide-based cathepsin K inhibitors” (Bioorg Med Chem Lett, 2006).
≈ marks a conversion by molar mass, not a printed value.

How the values were obtained:
[1] = target: T1, Cathepsin K (Homo sapiens, UniProt P43235); experiment: Inhibition of recombinant human cathepsin K by fluorescence assay
T1 sequence (P43235 whole entry): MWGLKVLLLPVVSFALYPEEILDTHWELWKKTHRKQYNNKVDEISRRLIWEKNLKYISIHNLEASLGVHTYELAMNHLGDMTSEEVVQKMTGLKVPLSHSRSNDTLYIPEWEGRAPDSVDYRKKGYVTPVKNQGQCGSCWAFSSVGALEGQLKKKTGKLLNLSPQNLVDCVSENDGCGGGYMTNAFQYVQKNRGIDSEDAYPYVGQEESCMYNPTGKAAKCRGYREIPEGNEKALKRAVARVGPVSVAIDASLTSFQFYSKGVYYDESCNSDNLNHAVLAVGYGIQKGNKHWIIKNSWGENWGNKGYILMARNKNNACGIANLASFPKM

[2] = Permeability in MDCK cell line; format: ADME, cell-based, Canis lupus familiaris; conditions: dog
[3] = Half life in Han Wistar rat iv; format: ADME, organism-based; conditions: in vivo
[4] = Oral bioavailability in Han Wistar rat; format: ADME, organism-based; conditions: in vivo
[5] = Volume of distribution in Han Wistar rat; format: ADME, organism-based; conditions: in vivo, read-out: Vss
[6] = Clearance in Han Wistar rat; format: ADME, organism-based; conditions: in vivo
[7] = Solubility in fasted state-simulated intestinal fluid at pH 6.8; format: physicochemical

Structure (SMILES) | IC50 [1] | Papp [2] | half-life [3] | bioavailability [4] | Vd [5] | clearance [6] | solubility [7]
CCCC[C@H](NC(=O)O[C@@H]1C(=O)N(C(=O)c2cc3ccccc3s2)CC1(C)C)C(=O)C(=O)N[C@H](C)c1ccccc1 | 2.8 nM | – | – | – | – | – | –
CCCC[C@H](NC(=O)O[C@@H]1C(=O)N(C(=O)c2cccnc2)CC1(C)C)C(=O)C(=O)N[C@H](C)c1ccccc1 | 14 nM | 21 ×10⁻⁶ cm/s | 1.57 h | 45% | 0.55 L/kg | 34 mL/min/kg | 85 µg/mL (≈ 163 µM)
CCCC[C@H](NC(=O)O[C@@H]1C(=O)N(S(=O)(=O)Cc2ccccc2)CC1(C)C)C(=O)C(=O)N[C@H](C)c1ccccc1 | 17 nM | – | – | – | – | – | –
CCCC[C@H](NC(=O)O[C@@H]1C(=O)N(Cc2ccccc2)CC1(C)C)C(=O)C(=O)N[C@H](C)c1ccccc1 | 21 nM | – | – | – | – | – | –
CCCC[C@H](NC(=O)O[C@@H]1C(=O)N(C(=O)Cc2ccccc2)CC1(C)C)C(=O)C(=O)N[C@H](C)c1ccccc1 | 3 nM | 41 ×10⁻⁶ cm/s | 1.05 h | 29% | 1.5 L/kg | 26 mL/min/kg | 68 µg/mL (≈ 127 µM)
CCCC[C@H](NC(=O)O[C@@H]1C(=O)N(C(=O)Oc2ccc3ccccc3c2)CC1(C)C)C(=O)C(=O)N[C@H](C)c1ccccc1 | 58 nM | – | – | – | – | – | –
CCCC[C@H](NC(=O)O[C@@H]1C(=O)N(C(=O)Oc2ccc(-c3ccccc3)cc2)CC1(C)C)C(=O)C(=O)N[C@H](C)c1ccccc1 | 5 nM | – | – | – | – | – | –
CCCC[C@H](NC(=O)O[C@@H]1C(=O)N(C(=O)Nc2ccc(C(F)(F)F)cc2)CC1(C)C)C(=O)C(=O)Nc1cc[nH]n1 | 0.42 nM | 1.8 ×10⁻⁶ cm/s | 1.25 h | 26% | 2.6 L/kg | 77 mL/min/kg | 140 µg/mL (≈ 247 µM)
CCCC[C@H](NC(=O)O[C@@H]1C(=O)N(C(=O)c2ccc3ccccc3c2)CC1(C)C)C(=O)C(=O)N[C@H](C)c1ccccc1 | 1.6 nM | – | – | – | – | – | –
CCCC[C@H](NC(=O)O[C@@H]1C(=O)N(C(=O)c2ccccc2)CC1(C)C)C(=O)C(=O)N[C@H](C)c1ccccc1 | 65 nM | – | – | – | – | – | –
CCCC[C@H](NC(=O)O[C@@H]1C(=O)N(C(=O)N2CCOCC2)CC1(C)C)C(=O)C(=O)N[C@H](C)c1ccccc1 | 16 nM | – | – | – | – | – | –
CCCC[C@H](NC(=O)O[C@@H]1C(=O)N(C(=O)Nc2ccccc2)CC1(C)C)C(=O)C(=O)N[C@H](C)c1ccccc1 | 4.3 nM | – | – | – | – | – | –
CCCC[C@H](NC(=O)O[C@@H]1C(=O)N(C(=O)c2nc3ccccc3s2)CC1(C)C)C(=O)C(=O)Nc1ccn[nH]1 | 0.81 nM | 25 ×10⁻⁶ cm/s | 3 h | 14% | 2.2 L/kg | 65 mL/min/kg | 160 µg/mL (≈ 296 µM)
CCCC[C@H](NC(=O)O[C@@H]1C(=O)N(C(=O)Oc2ccccc2)CC1(C)C)C(=O)C(=O)N[C@H](C)c1ccccc1 | 29 nM | – | – | – | – | – | –
CCCC[C@H](NC(=O)O[C@@H]1C(=O)N(C(=O)Nc2ccc(C(F)(F)F)cc2)CC1(C)C)C(=O)C(=O)N[C@H](C)c1ccccc1 | 2.1 nM | – | – | – | – | – | –
CCCC[C@H](NC(=O)O[C@@H]1C(=O)N(C(=O)NCCc2ccccc2)CC1(C)C)C(=O)C(=O)N[C@H](C)c1ccccc1 | 6.6 nM | – | – | – | – | – | –
CCCC[C@H](NC(=O)O[C@@H]1C(=O)N(C(=O)c2ccc(-c3ccccc3)cc2)CC1(C)C)C(=O)C(=O)N[C@H](C)c1ccccc1 | 6.9 nM | – | – | – | – | – | –
CCCC[C@H](NC(=O)O[C@@H]1C(=O)N(C(=O)Nc2c(C)noc2C)CC1(C)C)C(=O)C(=O)N[C@H](C)c1ccccc1 | 15 nM | 1.2 ×10⁻⁶ cm/s | 0.583 h | 8.8% | 1.4 L/kg | 83 mL/min/kg | 320 µg/mL (≈ 576 µM)
CCCC[C@H](NC(=O)O[C@@H]1C(=O)N(C(=O)CCCc2ccccc2)CC1(C)C)C(=O)C(=O)N[C@H](C)c1ccccc1 | 27 nM | – | – | – | – | – | –
CCCC[C@H](NC(=O)O[C@@H]1C(=O)N(C(=O)NCc2ccccc2)CC1(C)C)C(=O)C(=O)N[C@H](C)c1ccccc1 | 3.8 nM | 21 ×10⁻⁶ cm/s | 1.02 h | 21% | 1.4 L/kg | 32 mL/min/kg | 53 µg/mL (≈ 96.2 µM)
CCCC[C@H](NC(=O)O[C@@H]1C(=O)N(C(=O)c2nnc(C(F)(F)F)s2)CC1(C)C)C(=O)C(=O)Nc1cc[nH]n1 | 1 nM | 12 ×10⁻⁶ cm/s | 1.35 h | 13% | 3.3 L/kg | 79 mL/min/kg | –
CCCC[C@H](NC(=O)O[C@@H]1C(=O)N(C(=O)OCc2ccccc2)CC1(C)C)C(=O)C(=O)N[C@H](C)c1ccccc1 | 24 nM | – | – | – | – | – | –
CCCC[C@H](NC(=O)O[C@@H]1C(=O)N(C(=O)c2ccno2)CC1(C)C)C(=O)C(=O)N[C@H](C)c1ccccc1 | 8.9 nM | 48 ×10⁻⁶ cm/s | 0.6 h | 8.6% | 0.5 L/kg | 18 mL/min/kg | 68 µg/mL (≈ 133 µM)
CCCC[C@H](NC(=O)O[C@@H]1C(=O)N(C(=O)OCCc2ccccc2)CC1(C)C)C(=O)C(=O)N[C@H](C)c1ccccc1 | 32 nM | – | – | – | – | – | –
CCCC[C@H](NC(=O)O[C@@H]1C(=O)N(C(=O)c2ccc3[nH]ccc3c2)CC1(C)C)C(=O)C(=O)N[C@H](C)c1ccccc1 | 1.7 nM | – | – | – | – | – | –
CCCC[C@H](NC(=O)O[C@@H]1C(=O)N(C(=O)OCc2ccc(-c3ccccc3)cc2)CC1(C)C)C(=O)C(=O)N[C@H](C)c1ccccc1 | 2.1 nM | – | – | – | – | – | –
CCCC[C@H](NC(=O)O[C@@H]1C(=O)N(S(=O)(=O)c2ccccc2)CC1(C)C)C(=O)C(=O)N[C@H](C)c1ccccc1 | 8.3 nM | – | 2.5 h | 25% | 2.1 L/kg | 27 mL/min/kg | –
